Measurements: PubChem BioAssay (NCI)
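Five concentrations, 48 hours, 96-well plates. Here, GI50 denotes the concentration required for 50% inhibition of growth. TGI denotes the concentration required for complete inhibition of growth.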

What was measured:
Assay in all cases: NCI anticancer screen, dose series, 48 h
HS 578T breast = tested on: HS 578T breast
OVCAR-3 ovarian = tested on: OVCAR-3 ovarian
SNB-19 CNS = tested on: SNB-19 CNS
MALME-3M melanoma = tested on: MALME-3M melanoma
U251 CNS = tested on: U251 CNS
RXF 393 renal = tested on: RXF 393 renal
MCF7 breast = tested on: MCF7 breast
SW-620 colon = tested on: SW-620 colon
OVCAR-8 ovarian = tested on: OVCAR-8 ovarian
HOP-92 NSCLC = tested on: HOP-92 NSCLC
MDA-MB-435 = tested on: MDA-MB-435
IGROV1 ovarian = tested on: IGROV1 ovarian
SK-MEL-28 melanoma = tested on: SK-MEL-28 melanoma
SF-295 CNS = tested on: SF-295 CNS
HCC-2998 colon = tested on: HCC-2998 colon
HT29 colon = tested on: HT29 colon
TK-10 renal = tested on: TK-10 renal
786-0 renal = tested on: 786-0 renal
MDA-MB-231 breast = tested on: MDA-MB-231 breast
A549 NSCLC = tested on: A549 NSCLC
OVCAR-4 ovarian = tested on: OVCAR-4 ovarian
T-47D breast = tested on: T-47D breast
SN12C renal = tested on: SN12C renal
COLO 205 colon = tested on: COLO 205 colon
SK-MEL-2 melanoma = tested on: SK-MEL-2 melanoma
NCI/ADR-RES ovarian = tested on: NCI/ADR-RES ovarian
SK-OV-3 ovarian = tested on: SK-OV-3 ovarian
PC-3 prostate = tested on: PC-3 prostate
SK-MEL-5 melanoma = tested on: SK-MEL-5 melanoma
UO-31 renal = tested on: UO-31 renal
HCT-116 colon = tested on: HCT-116 colon
SF-539 CNS = tested on: SF-539 CNS
RPMI-8226 leukemia = tested on: RPMI-8226 leukemia
MOLT-4 leukemia = tested on: MOLT-4 leukemia
A498 renal = tested on: A498 renal
NCI-H522 lung = tested on: NCI-H522 lung
EKVX NSCLC = tested on: EKVX NSCLC
OVCAR-5 ovarian = tested on: OVCAR-5 ovarian
KM12 colon = tested on: KM12 colon
SR leukemia = tested on: SR leukemia
CCRF-CEM leukemia = tested on: CCRF-CEM leukemia
UACC-257 melanoma = tested on: UACC-257 melanoma
ACHN renal = tested on: ACHN renal
HOP-62 NSCLC = tested on: HOP-62 NSCLC
NCI-H226 lung = tested on: NCI-H226 lung
CAKI-1 renal = tested on: CAKI-1 renal
NCI-H23 lung = tested on: NCI-H23 lung
K-562 leukemia = tested on: K-562 leukemia
SNB-75 CNS = tested on: SNB-75 CNS
BT-549 breast = tested on: BT-549 breast
HCT-15 colon = tested on: HCT-15 colon
LOX IMVI melanoma = tested on: LOX IMVI melanoma
UACC-62 melanoma = tested on: UACC-62 melanoma
SF-268 CNS = tested on: SF-268 CNS
NCI-H460 lung = tested on: NCI-H460 lung
DU-145 prostate = tested on: DU-145 prostate
HL-60(TB) leukemia = tested on: HL-60(TB) leukemia

Which GI50 (HS 578T breast) does the source give for `CC[C@@H](C(=O)[C@@H](C)[C@@H](O)[C@H](C)[C@@H]1O[C@@H]([C@@H](CC)C(=O)N(CC)CC)CC[C@@H]1C)C1O[C@]2(C=CC(=O)[C@]3(CC[C@@](C)([C@H]4CC[C@](O)(CC)[C@H](C)O4)O3)O2)[C@H](C)C[C@@H]1C` (some centres undefined) here?
The GI50 was 2.68 µM.

What about the TGI (HS 578T breast) of the same compound?
Its TGI is 16.1 µM.

And the GI50 (OVCAR-3 ovarian)?
The GI50 was 2.34 µM.

What about the TGI (OVCAR-3 ovarian) of the same compound?
Its TGI is 6.49 µM.

And the GI50 (SNB-19 CNS)?
Its GI50 is 3.31 µM.

What about the TGI (SNB-19 CNS) of the same compound?
Its TGI is over 100 µM.

And the GI50 (MALME-3M melanoma)?
Its GI50 is 1.93 µM.

What about the TGI (MALME-3M melanoma) of the same compound?
Its TGI is 4.9 µM.

What about the GI50 (U251 CNS) of the same compound?
Its GI50 is 3.1 µM.

And the TGI (U251 CNS)?
Its TGI is 13.4 µM.

And the GI50 (RXF 393 renal)?
Its GI50 is 1.66 µM.

What about the TGI (RXF 393 renal) of the same compound?
Its TGI is 4.06 µM.

And the GI50 (MCF7 breast)?
The GI50 was 2.41 µM.

And the TGI (MCF7 breast)?
Its TGI is 8.11 µM.

What about the GI50 (SW-620 colon) of the same compound?
The GI50 was 3.11 µM.

What about the TGI (SW-620 colon) of the same compound?
The TGI was 23.5 µM.

And the GI50 (OVCAR-8 ovarian)?
Its GI50 is 3.55 µM.

What about the TGI (OVCAR-8 ovarian) of the same compound?
The TGI was over 100 µM.

What about the GI50 (HOP-92 NSCLC) of the same compound?
Its GI50 is 1.35 µM.

What about the TGI (HOP-92 NSCLC) of the same compound?
Its TGI is 4.6 µM.

What about the GI50 (MDA-MB-435) of the same compound?
Its GI50 is 2.91 µM.

And the TGI (MDA-MB-435)?
The TGI was 9.95 µM.

What about the GI50 (IGROV1 ovarian) of the same compound?
The GI50 was 2.31 µM.

And the TGI (IGROV1 ovarian)?
The TGI was 7.71 µM.

What about the GI50 (SK-MEL-28 melanoma) of the same compound?
Its GI50 is 4.45 µM.

What about the TGI (SK-MEL-28 melanoma) of the same compound?
The TGI was 21.3 µM.

And the GI50 (SF-295 CNS)?
Its GI50 is 2.26 µM.

What about the TGI (SF-295 CNS) of the same compound?
Its TGI is 6.51 µM.

And the GI50 (HCC-2998 colon)?
The GI50 was 1.97 µM.

And the TGI (HCC-2998 colon)?
Its TGI is 4.79 µM.

What about the GI50 (HT29 colon) of the same compound?
Its GI50 is 2.73 µM.

And the TGI (HT29 colon)?
Its TGI is 15.6 µM.

And the GI50 (TK-10 renal)?
The GI50 was 3.49 µM.

What about the TGI (TK-10 renal) of the same compound?
The TGI was over 100 µM.

And the GI50 (786-0 renal)?
Its GI50 is 3.22 µM.

What about the TGI (786-0 renal) of the same compound?
The TGI was 15.9 µM.

And the GI50 (MDA-MB-231 breast)?
Its GI50 is 1.69 µM.

And the TGI (MDA-MB-231 breast)?
The TGI was 3.33 µM.

What about the GI50 (A549 NSCLC) of the same compound?
Its GI50 is 3.21 µM.

What about the TGI (A549 NSCLC) of the same compound?
The TGI was over 100 µM.

What about the GI50 (OVCAR-4 ovarian) of the same compound?
The GI50 was 2.96 µM.

What about the TGI (OVCAR-4 ovarian) of the same compound?
Its TGI is 15.3 µM.

And the GI50 (T-47D breast)?
The GI50 was 2.59 µM.

What about the TGI (T-47D breast) of the same compound?
Its TGI is 9.44 µM.

And the GI50 (SN12C renal)?
Its GI50 is 2.41 µM.

What about the TGI (SN12C renal) of the same compound?
Its TGI is 8.64 µM.

What about the GI50 (COLO 205 colon) of the same compound?
Its GI50 is 2.35 µM.

And the TGI (COLO 205 colon)?
The TGI was 5.4 µM.

What about the GI50 (SK-MEL-2 melanoma) of the same compound?
Its GI50 is 2.71 µM.

What about the TGI (SK-MEL-2 melanoma) of the same compound?
The TGI was 7.85 µM.

And the GI50 (NCI/ADR-RES ovarian)?
The GI50 was 2.82 µM.

And the TGI (NCI/ADR-RES ovarian)?
The TGI was 26.9 µM.

And the GI50 (SK-OV-3 ovarian)?
Its GI50 is 3.87 µM.

What about the TGI (SK-OV-3 ovarian) of the same compound?
Its TGI is over 100 µM.

What about the GI50 (PC-3 prostate) of the same compound?
The GI50 was 2.6 µM.

What about the TGI (PC-3 prostate) of the same compound?
Its TGI is 24.7 µM.

What about the GI50 (SK-MEL-5 melanoma) of the same compound?
The GI50 was 1.69 µM.

And the TGI (SK-MEL-5 melanoma)?
Its TGI is 3.09 µM.

And the GI50 (UO-31 renal)?
The GI50 was 2.42 µM.

And the TGI (UO-31 renal)?
Its TGI is 10.2 µM.

And the GI50 (HCT-116 colon)?
Its GI50 is 3.18 µM.

And the TGI (HCT-116 colon)?
The TGI was 17.4 µM.

What about the GI50 (SF-539 CNS) of the same compound?
Its GI50 is 2.26 µM.

What about the TGI (SF-539 CNS) of the same compound?
The TGI was 5.47 µM.

And the GI50 (RPMI-8226 leukemia)?
The GI50 was 2.12 µM.

What about the TGI (RPMI-8226 leukemia) of the same compound?
The TGI was 6.42 µM.

And the GI50 (MOLT-4 leukemia)?
The GI50 was 2.66 µM.

What about the TGI (MOLT-4 leukemia) of the same compound?
Its TGI is 8.06 µM.

And the GI50 (A498 renal)?
Its GI50 is 2.25 µM.

What about the TGI (A498 renal) of the same compound?
Its TGI is 7.51 µM.

What about the GI50 (NCI-H522 lung) of the same compound?
The GI50 was 2.02 µM.

What about the TGI (NCI-H522 lung) of the same compound?
The TGI was 6.46 µM.

And the GI50 (EKVX NSCLC)?
The GI50 was 2.75 µM.

What about the TGI (EKVX NSCLC) of the same compound?
The TGI was 18.6 µM.

And the GI50 (OVCAR-5 ovarian)?
Its GI50 is 2.85 µM.

And the TGI (OVCAR-5 ovarian)?
Its TGI is 10.1 µM.

And the GI50 (KM12 colon)?
Its GI50 is 1.82 µM.

And the TGI (KM12 colon)?
The TGI was 3.68 µM.

What about the GI50 (SR leukemia) of the same compound?
The GI50 was 2.39 µM.

And the TGI (SR leukemia)?
The TGI was 6.63 µM.

And the GI50 (CCRF-CEM leukemia)?
The GI50 was 3.01 µM.

What about the TGI (CCRF-CEM leukemia) of the same compound?
The TGI was 14.4 µM.

What about the GI50 (UACC-257 melanoma) of the same compound?
The GI50 was 3.17 µM.

What about the TGI (UACC-257 melanoma) of the same compound?
The TGI was 19.9 µM.

What about the GI50 (ACHN renal) of the same compound?
The GI50 was 2.16 µM.

And the TGI (ACHN renal)?
The TGI was 5.19 µM.

And the GI50 (HOP-62 NSCLC)?
Its GI50 is 3.75 µM.

What about the TGI (HOP-62 NSCLC) of the same compound?
Its TGI is 20.1 µM.

What about the GI50 (NCI-H226 lung) of the same compound?
The GI50 was 2.21 µM.

What about the TGI (NCI-H226 lung) of the same compound?
The TGI was 6.71 µM.

And the GI50 (CAKI-1 renal)?
Its GI50 is 2.18 µM.

What about the TGI (CAKI-1 renal) of the same compound?
The TGI was 13.5 µM.

What about the GI50 (NCI-H23 lung) of the same compound?
The GI50 was 2.4 µM.

What about the TGI (NCI-H23 lung) of the same compound?
Its TGI is 6.91 µM.

And the GI50 (K-562 leukemia)?
Its GI50 is 2.89 µM.

And the TGI (K-562 leukemia)?
Its TGI is over 100 µM.

What about the GI50 (SNB-75 CNS) of the same compound?
The GI50 was 1.9 µM.

What about the TGI (SNB-75 CNS) of the same compound?
The TGI was 17.4 µM.

And the GI50 (BT-549 breast)?
Its GI50 is 3.29 µM.

What about the TGI (BT-549 breast) of the same compound?
Its TGI is 61.9 µM.

And the GI50 (HCT-15 colon)?
The GI50 was 2.02 µM.

And the TGI (HCT-15 colon)?
Its TGI is 4.51 µM.

What about the GI50 (LOX IMVI melanoma) of the same compound?
Its GI50 is 1.58 µM.

And the TGI (LOX IMVI melanoma)?
Its TGI is 3.17 µM.

And the GI50 (UACC-62 melanoma)?
Its GI50 is 1.83 µM.

What about the TGI (UACC-62 melanoma) of the same compound?
Its TGI is 5.81 µM.

What about the GI50 (SF-268 CNS) of the same compound?
The GI50 was 3.25 µM.

What about the TGI (SF-268 CNS) of the same compound?
Its TGI is 80.9 µM.

And the GI50 (NCI-H460 lung)?
The GI50 was 2.11 µM.

What about the TGI (NCI-H460 lung) of the same compound?
Its TGI is 4.94 µM.

And the GI50 (DU-145 prostate)?
Its GI50 is 3.41 µM.

And the TGI (DU-145 prostate)?
The TGI was 12.6 µM.

And the GI50 (HL-60(TB) leukemia)?
The GI50 was 2.16 µM.

What about the TGI (HL-60(TB) leukemia) of the same compound?
The TGI was 4.95 µM.
